Experiments:
Prohibitin (Phb) = experiment: Microarray gene expression, mouse intestine: Phb; format: in vivo; conditions: diet 1 ppm Se, vs selenium deficient
Description: (§1) Animal Care. Male C57BL/6J mice were housed singly and started on the experimental diets described below immediately after weaning (21 days of age). The mice were maintained in the Shared Aging Rodent Facility at the William S. Middleton Memorial Veterans Administration Medical Center (Madison, Wis.). Temperature and humidity were maintained at constant levels. Room light was controlled to provide 12-hr cycles of light and dark.
(§2) Experimental diets were created by Harlan Teklad (Madison, Wis.). Selenium content of the diets was determined by Covance Inc. (Madison, Wis.). Five (5) animals were included in each of the following treatment groups: a diet deficient in selenium (SD); a diet supplemented with selenomethionine (SM, obtained from Sigma, St. Louis, Mo.) such that the final selenium content of the diet was one (1) part per million; a diet supplemented with sodium selenite (SS, Sigma) such that the final concentration of selenium in this diet was one (1) part per million; or a diet supplemented with the yeast selenium SEL-PLEX (SP, Alltech, Lexington, Ky.), such that the final concentration of selenium in this diet was one (1) part per million. SEL-PLEX. […]
(§3) Tissue sample preparation and microarray analysis. […] For intestinal expression studies, the intestine was flushed twice with saline solution and small intestine was measured and divided in three equal segments. […]

SelR (Selenoprotein X1) = experiment: Microarray gene expression, mouse intestine: SelR; format: in vivo; conditions: diet 1 ppm Se, vs selenium deficient
Description: as §1, §2, §3

[1] = test system: Type 1 iodothyronine deiodinase; experiment: Microarray gene expression, mouse intestine: Type 1 iodothyronine deiodinase; format: in vivo; conditions: diet 1 ppm Se, vs selenium deficient
Description: as §1, §2, §3

Glyoxalase 1 (Glo1) = experiment: Microarray gene expression, mouse intestine: Glo1; format: in vivo; conditions: diet 1 ppm Se, vs selenium deficient
Description: as §1, §2, §3

[2] = Body weight of mice on selenium diets; format: in vivo, mouse; conditions: mouse, in vivo
Description: as §1
Experimental diets were created by Harlan Teklad (Madison, Wis.). Selenium content of the diets was determined by Covance Inc. (Madison, Wis.). […]
Thus, it was an object of the present invention to determine whether compositions and methods of the present invention could alter the expression levels (e.g., mRNA levels) of various genes. One group of genes analyzed were genes classically associated with selenium. As described above, the expression levels of genes were analyzed between mice with and without dietary selenium, or, between mice fed different sources of selenium) (See, e.g., Table 1, below).

[3] = test system: Complement component 1, q subcomponent, gamma polypeptide, C1qg; experiment: Microarray gene expression, mouse cerebral cortex: C1qg; format: in vivo; conditions: diet 1 ppm Se, vs selenium deficient, * p<0.01
Description: as §1, §2, §3

Selenoprotein W (SelW) = experiment: Microarray gene expression, mouse intestine: SelW; format: in vivo; conditions: diet 1 ppm Se, vs selenium deficient
Description: as §1, §2, §3

[4] = test system: type II iodothyronine deiodinase (Dio2); experiment: Microarray gene expression, mouse intestine: Dio2; format: in vivo; conditions: diet 1 ppm Se, vs selenium deficient
Description: as §1, §2, §3

[5] = test system: sprouty homolog 2 gene (Spry2); experiment: Microarray gene expression, mouse intestine: Spry2; format: in vivo; conditions: diet 1 ppm Se, vs Se-deficient controls
Description: as §1, §2, §3

CORS-26 = experiment: Microarray gene expression, mouse cerebral cortex: CORS-26; format: in vivo; conditions: diet 1 ppm Se, vs selenium deficient
Description: as §1, §2, §3

Neurogenin 3 (Neurog3) = experiment: Microarray gene expression, mouse intestine: Neurog3; format: in vivo; conditions: diet 1 ppm Se, vs selenium deficient
Description: as §1, §2, §3

Glutathione Peroxidase 3 = experiment: Microarray gene expression, mouse intestine: Glutathione Peroxidase 3; format: in vivo; conditions: diet 1 ppm Se, vs selenium deficient, all p < 0.01
Description: as §1, §2, §3

selenoprotein N1 (Sepn1) = experiment: Microarray gene expression, mouse intestine: Sepn1; format: in vivo; conditions: diet 1 ppm Se, vs selenium deficient
Description: as §1, §2, §3

Glutathione Peroxidase 1 = experiment: Microarray gene expression, mouse intestine: Glutathione Peroxidase 1; format: in vivo; conditions: diet 1 ppm Se, vs selenium deficient, all p < 0.01
Description: as §1, §2, §3

[6] = test system: Growth arrest and DNA-damage-inducible 45 gamma (Gadd45g); experiment: Microarray gene expression, mouse intestine: Gadd45g; format: in vivo; conditions: diet 1 ppm Se, vs selenium deficient, negative = down
Description: as §1
Experimental diets were created by Harlan Teklad (Madison, Wis.). Selenium content of the diets was determined by Covance Inc. (Madison, Wis.). Five (5) animals were included in each of the following treatment groups: a diet deficient in selenium (SD); a diet supplemented with selenomethionine (SM, obtained from Sigma, St. Louis, Mo.) such that the final selenium content of the diet was one (1) part per million; a diet supplemented with sodium selenite (SS, Sigma) such that the final concentration of selenium in this diet was one (1) part per million; or a diet supplemented with the yeast selenium SEL-PLEX (SP, Alltech, Lexington, Ky.), such that the final concentration of selenium in this diet was one (1) part per million. SEL-PLEX. Mice were provided with water and their respective diet ad libitum for 100 days. Diets were stored at the dark at 4° C. and fresh diet was added to feeder twice weekly.
Tissue sample preparation and microarray analysis. Mice were killed at 100 days of age by cervical dislocation. For intestinal expression studies, the intestine was flushed twice with saline solution and small intestine was measured and divided in three equal segments. A 3-cm region of the middle segment of the small intestine corresponding to the jejunum (˜300 mg of tissue) was cut and rinsed again with physiological saline to completely remove contents, flash frozen in liquid nitrogen and stored at −80° C. For brain (e.g., cerebral cortex) studies, the cerebral cortex was separated from the surrounding brain tissue and was flash frozen in liquid nitrogen and stored at −80° C. […]

[7] = test system: LIM homeobox protein 8 gene (Lhx8); experiment: Microarray gene expression, mouse intestine: Lhx8; format: in vivo; conditions: diet 1 ppm Se, vs selenium deficient
Description: as §1, §2, §3

[8] = test system: transforming growth factor beta 2 (TGF-β2); experiment: Microarray gene expression, mouse intestine: TGF-β2; format: in vivo; conditions: diet 1 ppm Se, vs controls
Description: as §1, §2, §3

[9] = Chick Brain Se Concentration at day 14; format: in vivo, chicks (offspring of treated hens); conditions: offspring of hens fed 0.3 ppm Se; chicks 14 days on Se deficient diet; pooled brains
Description: (§4) Compositions and methods of the present invention were utilized to evaluate the effects of various Se sources on the accumulation of brain Se concentrations in hens and their offspring.
(§5) The study was conducted at the Coldstream Research Facility from Jun. 28, 2004 until Nov. 16, 2004. Six dietary treatments were fed to a total of 48 hens (r=8) that were bred on three consecutive days starting on Sep. 16, 2004.
(§6) • Basal (no added Se) • Selenite (0.3 ppm) • Sel Plex (0.3 ppm) • Tepsel (0.3 ppm) • Se 2000 (0.3 ppm) • Selenosource (0.3 ppm)
(§7) Chicks that hatched were divided into two groups. Half of the chicks were killed for brain collection and the remaining chicks were allowed to grow for 14 days on a Se deficient diet, at which time they were terminated for brain collection. Hen brains were analyzed for Se content individually, whereas the chick brains were homogenized and pooled because of small sample size.
(§8) Brain Se concentrations for the hens and chicks are shown in Tables 4 and 5, below, respectively. The Selenosource value represents only one hen brain analyzed and therefore was not included in the statistical analysis.

[10] = Hen Brain Se Concentration; format: in vivo, White-Egg-Laying Hens; conditions: hens; diet with 0.3 ppm Se from the source
Description: as §4, §5, §6, §7, §8

SMILES: C[Se]CC[C@H](N)C(=O)O [SeM, selenomethionine]
- expression of Prohibitin (Phb), fold upregulated (Prohibitin (Phb)): 1.6 fold
- expression of SelR, fold upregulated (SelR (Selenoprotein X1)): not significantly affected
- fold increase of expression level of Type 1 iodothyronine deiodinase [1]: 2.0 fold
- expression of Glo1, fold reduction (Glyoxalase 1 (Glo1)): not significantly affected
- body weights of mice [2]: No significant differences
- FC (fold change) expression of C1qg [3]: 1.0 fold
- expression of Selenoprotein W (SelW), fold upregulated (Selenoprotein W (SelW)): not significantly altered
- expression of Dio2, fold down-regulation [4]: no ability to alter the expression levels
- Spry2 gene expression, fold reduction [5]: no alteration in expression levels
- expression of CORS-26, fold reduction (CORS-26): no alteration in expression levels
- Neurog3 expression, fold upregulated (Neurogenin 3 (Neurog3)): no significant alteration
- fold change in expression of Glutathione Peroxidase 3 (Glutathione Peroxidase 3): 4.6 fold
- expression of selenoprotein N1 (Sepn1), fold increased (selenoprotein N1 (Sepn1)): not significantly affected
- fold change in expression of Glutathione Peroxidase 1 (Glutathione Peroxidase 1): 4.9 fold
- FC (fold change) expression of Gadd45g [6]: decreased expression
- FC (fold change) expression of Gadd45g ([6]; listed as SM): −1.5 fold
- expression of Lhx8, fold upregulated [7]: not significantly different
- expression of TGF-β2 (printed TGF-β), fold upregulated [8]: not altered

SMILES: O=[Se](O)O [Selenite]
- Chick Brain Se Concentration at day 14 [9]: 784 ppb
- Hen Brain Se Concentration [10]: 850 ppb

Reference: patent US8865763B2, “Methods and compositions for altering cell function” (Alltech, Inc., priority 2005, dated 2014)
